The values that follow are results of earlier work, collected in US20090197966A1, “Use of Hypothermia Inducing Drugs” (priority 2006, published 2009).

This data set relates to TRPV1 receptor. The following applies: systemic administration.

Read-outs that look alike come from different tables or passages of the source.

As for `COc1cc(CNC(=O)CCCC/C=C/C(C)C)ccc1O` [capsaicin, 8-methyl-N-vallilyl-6-nonenamide], the hypothermic response entry is reported as “dramatic hypothermic response” (mammals) and “absent” (mice lacking the TRPV1 gene).
